Laboratory results reported in patent US20260166128A1, “HUMAN AMYLIN ANALOG, AND DERIVATIVE THEREOF AND USE THEREOF” (priority 2022, published 2026).
pEC50: −log10 of the molar value. Like-named read-outs stand apart in the source and are kept apart here. Numbered stars: 1 amine (or outer) side, 2 acyl side, 3 side chain; on linkers, the order of the positions; unused ones are H or OH. Bridge positions count the residues as written; N and C are the ends. Square brackets hold non-standard residues; d marks the D form. Side chains are listed from the residue outwards. Peptide text beside a SMILES is read from it. * marks the point of attachment. C20 diacid = O=C(O)CCCCCCCCCCCCCCCCCCC(=O)*; C18 diacid = O=C(O)CCCCCCCCCCCCCCCCC(=O)*; γGlu = O=C(O)[C@H](CCC(=O)[*:2])N[*:1]; βAsp = O=C(O)[C@H](CC(=O)[*:2])N[*:1]; Hyp = O=C(O)[C@@H]1C[C@@H](O)CN1; AEEA = NCCOCCOCC(=O)O; Inp = O=C(O)C1CCNCC1

Target: T1, human amylin receptor (Homo sapiens, UniProt O60896+P30988)
T1 construct: host or cells: CHO-K1/Ga15/AMY3 cells, further stably transfected with a CRE-luciferase plasmid
T1 sequence (P30988 25-474): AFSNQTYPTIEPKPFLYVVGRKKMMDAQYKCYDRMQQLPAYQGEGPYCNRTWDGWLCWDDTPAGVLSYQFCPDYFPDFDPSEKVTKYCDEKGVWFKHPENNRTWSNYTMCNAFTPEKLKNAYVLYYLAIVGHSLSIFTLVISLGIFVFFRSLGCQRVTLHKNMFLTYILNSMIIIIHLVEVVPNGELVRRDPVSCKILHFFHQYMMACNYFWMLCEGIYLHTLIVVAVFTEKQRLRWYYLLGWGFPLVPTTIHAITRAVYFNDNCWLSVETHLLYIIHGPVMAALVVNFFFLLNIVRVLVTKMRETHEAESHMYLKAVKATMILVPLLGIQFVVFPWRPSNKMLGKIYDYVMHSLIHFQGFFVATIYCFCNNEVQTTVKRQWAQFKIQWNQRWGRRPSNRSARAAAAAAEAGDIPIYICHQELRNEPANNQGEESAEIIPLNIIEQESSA
T1 sequence (O60896 24-148 partner): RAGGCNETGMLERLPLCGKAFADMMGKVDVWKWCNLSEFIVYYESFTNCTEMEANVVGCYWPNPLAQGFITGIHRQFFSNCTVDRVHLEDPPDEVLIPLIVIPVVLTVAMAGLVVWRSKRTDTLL
Experiment: Luciferase assay of amylin derivatives in amylin receptor/CRE-luc CHO cell line
Type: cell-based
Settings: 24 hours incubation, F12 medium containing 10% FBS

[1] = CHO-K1/Ga15/AMY3 CRE-luc cells, read-out: EC50

Procedure: The experiment was intended to detect the activity or efficacy of the amylin derivatives on a human amylin receptor in vitro by luciferase assay.
50 μL of growth medium (F12 medium containing 10% FBS) was added into each well of a white 96-well plate, and the stably transfected amylin/CRE-lue CHO cells were inoculated into the white 96-well plate at a density of about 20,000 cells/well for activity determination.

Compound	pEC50 [1]	pEC50 (EC50, CHO-K1/Ga15/AMY3 CRE-luc cells)
CC[C@H](C)[C@H](NC(=O)[C@H](CCCCNC(=O)CC[C@H](NC(=O)CCCCCCCCCCCCCCCCCCC(=O)O)C(=O)O)NC(=O)CNC(=O)[C@H](CC(C)C)NC(=O)[C@H](CC(N)=O)NC(=O)[C@H](CC(N)=O)NC(=O)[C@H](CO)NC(=O)[C@H](CO)NC(=O)[C@H](Cc1c[nH]cn1)NC(=O)[C@H](CCCNC(=N)N)NC(=O)[C@H](CC(C)C)NC(=O)[C@H](Cc1ccccc1)NC(=O)[C@H](CC(=O)O)NC(=O)[C@H](C)NC(=O)[C@H](CC(C)C)NC(=O)[C@H](CCCNC(=N)N)NC(=O)[C@H](CCC(N)=O)NC(=O)[C@@H](NC(=O)[C@H](C)NC(=O)[C@@H]1CSSC[C@H](NC(=O)[C@@H](N)CCCNC(=N)N)C(=O)N[C@@H](CC(N)=O)C(=O)N[C@@H]([C@@H](C)O)C(=O)N[C@@H](C)C(=O)N[C@@H]([C@@H](C)O)C(=O)N1)[C@@H](C)O)C(=O)N[C@@H](CC(C)C)C(=O)N1CCC[C@H]1C(=O)N1CCC[C@H]1C(=O)N[C@H](C(=O)N[C@@H](CC(N)=O)C(=O)N[C@H](C(=O)NCC(=O)N[C@@H](CO)C(=O)N[C@@H](CC(N)=O)C(=O)N[C@H](C(=O)N1C[C@H](O)C[C@H]1C(N)=O)[C@@H](C)O)C(C)C)[C@@H](C)O [PD102] (H-RCNTATCATQRLADFLRHSSNNLGK([γGlu-C20 diacid])ILPPTNVGSNT[Hyp]-NH2; disulfide 2-7)	10.48	–
CC[C@H](C)[C@H](NC(=O)[C@@H]1CCCN1C(=O)[C@H](CCCCN)NC(=O)[C@H](CC(C)C)NC(=O)[C@H](CC(N)=O)NC(=O)[C@H](CC(N)=O)NC(=O)[C@H](CO)NC(=O)[C@H](CO)NC(=O)[C@H](Cc1c[nH]cn1)NC(=O)[C@H](CCCNC(=N)N)NC(=O)[C@H](CC(C)C)NC(=O)[C@H](Cc1ccccc1)NC(=O)[C@H](CC(=O)O)NC(=O)[C@H](C)NC(=O)[C@H](CC(C)C)NC(=O)[C@H](CCCNC(=N)N)NC(=O)[C@H](CCC(N)=O)NC(=O)[C@@H](NC(=O)[C@H](C)NC(=O)[C@@H]1CSSC[C@H](NC(=O)[C@H](CCCCN)NC(=O)C2CCN(C(=O)COCCOCCNC(=O)COCCOCCNC(=O)CCCCCCCCCCCCCCCCCCC(=O)O)CC2)C(=O)N[C@@H](CC(N)=O)C(=O)N[C@@H]([C@@H](C)O)C(=O)N[C@@H](C)C(=O)N[C@@H]([C@@H](C)O)C(=O)N1)[C@@H](C)O)C(=O)N[C@@H](CC(C)C)C(=O)N1CCC[C@H]1C(=O)N1CCC[C@H]1C(=O)N[C@H](C(=O)N[C@@H](CC(N)=O)C(=O)N[C@H](C(=O)NCC(=O)N[C@@H](CO)C(=O)N[C@@H](CC(N)=O)C(=O)N[C@H](C(=O)N1C[C@H](O)C[C@H]1C(N)=O)[C@@H](C)O)C(C)C)[C@@H](C)O [PD180] ({C20 diacid-AEEA-AEEA-Inp}-KCNTATCATQRLADFLRHSSNNLKPILPPTNVGSNT[Hyp]-NH2; disulfide 2-7)	10.80	–
CC[C@H](C)[C@H](NC(=O)[C@@H]1CCCN1C(=O)[C@H](CCCCNC(=O)CC[C@H](NC(=O)CCCCCCCCCCCCCCCCCCC(=O)O)C(=O)O)NC(=O)[C@H](CC(C)C)NC(=O)[C@H](CC(N)=O)NC(=O)[C@H](CC(N)=O)NC(=O)[C@H](CO)NC(=O)[C@H](CO)NC(=O)[C@H](Cc1c[nH]cn1)NC(=O)[C@H](CCCNC(=N)N)NC(=O)[C@H](CC(C)C)NC(=O)[C@H](Cc1ccccc1)NC(=O)[C@H](CC(=O)O)NC(=O)[C@H](C)NC(=O)[C@H](CC(C)C)NC(=O)[C@H](CCCNC(=N)N)NC(=O)[C@H](CCC(N)=O)NC(=O)[C@@H](NC(=O)[C@H](C)NC(=O)[C@@H]1CSSC[C@H](NC(=O)[C@@H](N)CCC(=O)O)C(=O)N[C@@H](CC(N)=O)C(=O)N[C@@H]([C@@H](C)O)C(=O)N[C@@H](C)C(=O)N[C@@H]([C@@H](C)O)C(=O)N1)[C@@H](C)O)C(=O)N[C@@H](CC(C)C)C(=O)N1CCC[C@H]1C(=O)N1CCC[C@H]1C(=O)N[C@H](C(=O)N[C@@H](CC(N)=O)C(=O)N[C@H](C(=O)NCC(=O)N[C@@H](CO)C(=O)N[C@@H](CC(N)=O)C(=O)N[C@H](C(=O)N1C[C@H](O)C[C@H]1C(N)=O)[C@@H](C)O)C(C)C)[C@@H](C)O [PD080] (H-ECNTATCATQRLADFLRHSSNNLK([γGlu-C20 diacid])PILPPTNVGSNT[Hyp]-NH2; disulfide 2-7)	9.96	–
CC[C@H](C)[C@H](NC(=O)[C@@H]1CCCN1C(=O)CNC(=O)[C@H](CC(C)C)NC(=O)[C@H](CC(N)=O)NC(=O)[C@H](CC(N)=O)NC(=O)[C@H](CO)NC(=O)[C@H](CCCCNC(=O)COCCOCCNC(=O)COCCOCCNC(=O)CC[C@H](NC(=O)CCCCCCCCCCCCCCCCC(=O)O)C(=O)O)NC(=O)[C@H](Cc1c[nH]cn1)NC(=O)[C@H](CCCNC(=N)N)NC(=O)[C@H](CC(C)C)NC(=O)[C@H](Cc1ccccc1)NC(=O)[C@H](CC(=O)O)NC(=O)[C@H](C)NC(=O)[C@H](CC(C)C)NC(=O)[C@H](CCCNC(=N)N)NC(=O)[C@H](CCC(N)=O)NC(=O)[C@@H](NC(=O)[C@H](C)NC(=O)[C@@H]1CSSC[C@H](NC(=O)[C@@H](N)CCCNC(=N)N)C(=O)N[C@@H](CC(N)=O)C(=O)N[C@@H]([C@@H](C)O)C(=O)N[C@@H](C)C(=O)N[C@@H]([C@@H](C)O)C(=O)N1)[C@@H](C)O)C(=O)N[C@@H](CC(C)C)C(=O)N1CCC[C@H]1C(=O)N1CCC[C@H]1C(=O)N[C@H](C(=O)N[C@@H](CC(N)=O)C(=O)N[C@H](C(=O)NCC(=O)N[C@@H](CO)C(=O)N[C@@H](CC(N)=O)C(=O)N[C@H](C(=O)N1C[C@H](O)C[C@H]1C(N)=O)[C@@H](C)O)C(C)C)[C@@H](C)O [PD101] (H-RCNTATCATQRLADFLRHK([AEEA-AEEA-γGlu-C18 diacid])SNNLGPILPPTNVGSNT[Hyp]-NH2; disulfide 2-7)	–	10.92
CC[C@H](C)[C@H](NC(=O)[C@@H]1CCCN1C(=O)[C@H](Cc1c[nH]cn1)NC(=O)[C@H](CC(C)C)NC(=O)[C@H](CC(N)=O)NC(=O)[C@H](CC(N)=O)NC(=O)[C@H](CO)NC(=O)[C@H](CO)NC(=O)[C@H](Cc1c[nH]cn1)NC(=O)[C@H](CCCNC(=N)N)NC(=O)[C@H](CC(C)C)NC(=O)[C@H](Cc1ccccc1)NC(=O)[C@H](CC(=O)O)NC(=O)[C@H](C)NC(=O)[C@H](CC(C)C)NC(=O)[C@H](CCCNC(=N)N)NC(=O)[C@H](CCC(N)=O)NC(=O)[C@@H](NC(=O)[C@H](C)NC(=O)[C@@H]1CSSC[C@H](NC(=O)[C@H](CCCCN)NC(=O)CC[C@H](NC(=O)CCCCCCCCCCCCCCCCCCC(=O)O)C(=O)O)C(=O)N[C@@H](CC(N)=O)C(=O)N[C@@H]([C@@H](C)O)C(=O)N[C@@H](C)C(=O)N[C@@H]([C@@H](C)O)C(=O)N1)[C@@H](C)O)C(=O)N[C@@H](CC(C)C)C(=O)N1CCC[C@H]1C(=O)N1CCC[C@H]1C(=O)N[C@H](C(=O)N[C@@H](CC(N)=O)C(=O)N[C@H](C(=O)NCC(=O)N[C@@H](CO)C(=O)N[C@@H](CC(N)=O)C(=O)N[C@H](C(=O)N1CCC[C@H]1C(N)=O)[C@@H](C)O)C(C)C)[C@@H](C)O [PD162] ({C20 diacid-γGlu}-KCNTATCATQRLADFLRHSSNNLHPILPPTNVGSNTP-NH2; disulfide 2-7 (inferred))	10.46	–
CC[C@H](C)[C@H](NC(=O)[C@@H]1CCCN1C(=O)[C@H](CCCCN)NC(=O)[C@H](CC(C)C)NC(=O)[C@H](CC(N)=O)NC(=O)[C@H](CC(N)=O)NC(=O)[C@H](CO)NC(=O)[C@H](CO)NC(=O)[C@H](Cc1c[nH]cn1)NC(=O)[C@H](CCCNC(=N)N)NC(=O)[C@H](CC(C)C)NC(=O)[C@H](Cc1ccccc1)NC(=O)[C@H](CC(=O)O)NC(=O)[C@H](C)NC(=O)[C@H](CC(C)C)NC(=O)[C@H](CCCNC(=N)N)NC(=O)[C@H](CCC(N)=O)NC(=O)[C@@H](NC(=O)[C@H](C)NC(=O)[C@@H]1CSSC[C@H](NC(=O)[C@H](CCCCN)NC(=O)COCCOCCNC(=O)COCCOCCNC(=O)C[C@H](NC(=O)CCCCCCCCCCCCCCCCCCC(=O)O)C(=O)O)C(=O)N[C@@H](CC(N)=O)C(=O)N[C@@H]([C@@H](C)O)C(=O)N[C@@H](C)C(=O)N[C@@H]([C@@H](C)O)C(=O)N1)[C@@H](C)O)C(=O)N[C@@H](CC(C)C)C(=O)N1CCC[C@H]1C(=O)N1CCC[C@H]1C(=O)N[C@H](C(=O)N[C@@H](CC(N)=O)C(=O)N[C@H](C(=O)NCC(=O)N[C@@H](CO)C(=O)N[C@@H](CC(N)=O)C(=O)N[C@H](C(=O)N1CCC[C@H]1C(N)=O)[C@@H](C)O)C(C)C)[C@@H](C)O [PD195] ({C20 diacid-βAsp-AEEA-AEEA}-KCNTATCATQRLADFLRHSSNNLKPILPPTNVGSNTP-NH2; disulfide 2-7 (inferred))	10.60	–
{C20 diacid-γGlu}-KGGGGRCNTATCATQRLADFLRHSSNNLRPILPPTNVGSNTP-NH2 (disulfide 7-12 (inferred)) [PD198]	10.54	–
